Results on two molecules are retold here after patent USRE40086E1, “Method for treating bacterial infection with novel 7-substituted-9-substituted amino 6-demethyl-6-deoxytetracyclines” (Wyeth Holdings Corporation, priority 1991, dated 2008).

Structures can show the parent of a compound that is named as a salt. Bounds are passed on as bounds.

Assay [1] has as its system S. aureus UBMS 88-5 (tetM). Briefly: MIC, agar dilution. The settings on record: Staphylococcus aureus. Format: cell-based. A general note: In agar dilution the substance is mixed into plates at graded concentrations.
Assay [2] concerns S. aureus UBMS 88-4 (Sensitive). The experiment in a line: MIC, agar dilution. It is filed as cell-based. The following applies: Staphylococcus aureus, S. aureus UBMS 88-4 (Sensitive); read-out: MIC.
In assay [3] the test system is S. aureus UBMS 90-1 (tetM). Briefly: MIC, agar dilution. Format: cell-based. The following applies: Staphylococcus aureus.
For assay [4], the system named is S. aureus UBMS 90-3 (Sensitive). The experiment in a line: MIC, agar dilution. Format: cell-based. The settings on record: Staphylococcus aureus, S. aureus UBMS 90-3 (Sensitive); read-out: MIC.
Another assay deals with E. coli UBMS 90-4 (tetM). Briefly: MIC, agar dilution. It is filed as cell-based. The following applies: Escherichia coli.
For assay [5], the system named is N. gonorrhoeae 6418 (tetM). The experiment in a line: MIC, agar dilution. Format: cell-based. The settings on record: Neisseria gonorrhoeae.
For assay [6], the system named is E. faecalis UBMS 90-6 (tetM). Briefly: MIC, agar dilution. Format: cell-based. The settings on record: Enterococcus faecalis.
The test system of assay [7] is E. faecalis UBMS 90-7 (tetM). Briefly: MIC, agar dilution. Format: cell-based. The settings on record: Enterococcus faecalis.
For assay [8], the system named is Staphylococcus aureus, methicillin-susceptible. The experiment in a line: MIC vs recent clinical and agricultural isolates (Table V, KK). It is filed as cell-based. The following applies: [15] tested.
In the next assay the test system is Enterococcus faecalis. The description is as above. Format: cell-based. The settings on record: [10] tested.
A further assay relates to Enterococcus faecium. Described as above. Format: cell-based. The following applies: [10] tested.
A further assay concerns Streptococcus pyogenes. The assay is described as above. It is filed as cell-based. The following applies: [10] tested.
For another assay, the system named is Streptococcus agalactiae. The assay is described as above. It is filed as cell-based. The settings on record: [10] tested.
The next assay relates to Streptococcus pneumoniae. Described as above. The settings on record: [10] tested. Format: cell-based.
The subject of a further assay is Listeria monocytogenes. Described as above. The settings on record: [8] tested. Format: cell-based.
For the next assay, the system named is Klebsiella oxytoca. The assay is described as above. It is filed as cell-based. The following applies: [10] tested.
The test system of another assay is Citrobacter freundii. The description is as above. It is filed as cell-based. The settings on record: [10] tested.
A further assay deals with Citrobacter diversus. The assay is described as above. It is filed as cell-based. The following applies: [10] tested.
In a further assay the test system is Enterobacter cloacae. The description is as above. Format: cell-based. The settings on record: [10] tested.
The next assay deals with Enterobacter aerogenes. The description is as above. The settings on record: [10] tested. Format: cell-based.
The next assay has as its system Proteus mirabilis. The assay is described as above. It is filed as cell-based. The following applies: [26] tested.
The subject of another assay is Proteus vulgaris. The assay is described as above. It is filed as cell-based. The settings on record: [18] tested.
For another assay, the system named is Pseudomonas aeruginosa. The assay is described as above. It is filed as cell-based. The settings on record: [10] tested.
A further assay has as its system Xanthomonas maltophilia. The description is as above. Format: cell-based. The following applies: [10] tested.
A further assay relates to Moraxella catarrhalis. The description is as above. It is filed as cell-based. The settings on record: [18] tested.
The next assay concerns Haemophilus influenzae. The assay is described as above. Format: cell-based. The following applies: [15] tested.
Assay [9] concerns Pasturella multocida (Agricultural & Clinical). Described as above. Format: cell-based. The following applies: [17] tested.
The subject of assay [10] is Bordetella bronchiseptica (Agricultural). Described as above. The following applies: [10] tested. It is filed as cell-based.
For assay [11], the system named is Bacertoides fragilis group. The assay is described as above. The following applies: [10] tested. Format: cell-based.
A further assay deals with Clostridium perfringens. It is filed as cell-based. The settings on record: [16] tested.
Assay [12] has as its system E. coli cell-free ribosomes, strain MRE 600 (TC Sensitive Host). The experiment in a line: E. coli in vitro cell free protein translation system (Table VI). Format: biochemical.
Assay [13] deals with E. coli cell-free ribosomes, strain MRE 600 (tetM) (Tet M Host). Described as above. It is filed as biochemical.
Assay [14] relates to tetracycline-susceptible E. coli. The experiment in a line: Resumption of bacterial growth after washing out the antibiotic (reversibility of binding). Format: cell-based. The following applies: 30 minutes at growth inhibitory concentrations, then centrifugation and fresh medium. Here is the method:
The antibiotics are added to exponentially growing cultures of tetracycline-susceptible E. coli at growth inhibitory concentrations. After 30 minutes, excess antibiotic is removed from the bacteria by centrifugation and the organism is resuspended in fresh growth medium. The ability of bacteria to resume growth is monitored. […] This reflects the different binding characteristics of the drugs.

What is called MIC is the lowest concentration found to suppress growth. With `CN(C)[C@@H]1C(O)=C(C(N)=O)C(=O)[C@@]2(O)C(O)=C3C(=O)c4c(O)cccc4[C@@](C)(O)[C@H]3C[C@@H]12` [TC, Tetracycline hydrochloride], the MIC in assay [1] was 32 µg/mL; in [2] it was 0.12 µg/mL; in assay [3], 32 µg/mL; in assay [4], 0.12 µg/mL; with E. coli UBMS 90-4 (tetM), 64 µg/mL; in assay [5], > 32 µg/mL. The MIC in assay [6] and in assay [7] was 32 µg/mL each time. Besides, the “MIC (range over isolates)” value lay within 0.12 to 1 µg/mL in assay [8]; 0.12 to 64 µg/mL against Enterococcus faecalis; 0.12 to 64 µg/mL with Enterococcus faecium; 0.12 to 16 µg/mL against Streptococcus pyogenes; 0.25 to 64 µg/mL against Streptococcus agalactiae; 0.12 to 2 µg/mL in the assay with Streptococcus pneumoniae. The “MIC (range over isolates)” value against Listeria monocytogenes is 0.12 to 0.5 µg/mL; in the assay on Klebsiella oxytoca it was 0.5 to 1 µg/mL; in the assay with Citrobacter freundii it was 0.5 to 16 µg/mL; against Citrobacter diversus, 0.5 to 4 µg/mL; in the assay with Enterobacter cloacae it was 0.5 to 2 µg/mL; against Enterobacter aerogenes, 0.5 to 1 µg/mL. For the same molecule, the “MIC (range over isolates)” value against Proteus mirabilis was 0.5 to 64 µg/mL; with Proteus vulgaris, 0.25 to 64 µg/mL; with Pseudomonas aeruginosa it was 2 to 32 µg/mL; with Xanthomonas maltophilia it was 8 to 16 µg/mL; with Moraxella catarrhalis, 0.06 to 0.5 µg/mL; with Haemophilus influenzae, 1 to 32 µg/mL. In addition, the “MIC (range over isolates)” value in assay [9] lay in the range of 0.06 to 16 µg/mL; in assay [10], 0.12 to 0.25 µg/mL; in assay [11], 0.25 to 32 µg/mL; against Clostridium perfringens it was 0.015 to 16 µg/mL. Further, the entries for the “IC50, concentration of antibiotic required to inhibit protein synthesis by 50% compared to a drug-free control” value in assay [12] and in assay [13] were 0.6 µg/mL and 2.0 µg/mL, respectively.

As for polymyxin [reference compound], the “ability of bacteria to resume growth after excess antibiotic is removed by washing” value in assay [14] is reported as “continues to prevent bacterial growth even when excess antibiotic is removed”.
